The values below come from patent publication US11446287B2, “Compounds and methods for EP300 or CBP modulation and indications therefor” (Opna Immuno-Oncology SA, priority 2019, dated 2022).

Molecules are shown by their SMILES.

The target of the assay is T1, Recombinant human BRD4 containing dual bromodomains (BRD4-BD12 (1-477)) (Homo sapiens, UniProt O60885).
T1 construct: Recombinant human BRD4 containing dual bromodomains (BRD4-BD12 (1-477)); made in house; host or cells: E. coli BL21-CodonPlus (DE3), modified pET vector
The experiment in a line: BRD4 Alphascreen binding assay. The procedure, abridged:
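AlphaScreen proximity between Ni-chelate-bound BRD4-BD12 (1-477) and streptavidin-captured H4 K5/K8/K12/K16-acetyl peptide measured after 1 h room-temperature compound incubation and 30 min with 7.5 μg/ml beads. Buffer: 50 mM HEPES pH 7.5, 50 mM NaCl, 0.01% BSA, 0.01% Triton X-100; data plate-normalized and four-parameter fit for IC50.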
(In Alpha technology, singlet oxygen from a donor bead excites a nearby acceptor bead.)

For `Cc1noc(C)c1-c1cnc2c(c1)c(-c1ccc(C(=O)O)cc1OC(F)(F)F)cn2-c1ccc(C(C)(C)O)cc1` [P-0314, 4-(5-(3,5-dimethylisoxazol-4-yl)-1-(4-(2-hydroxypropan-2-yl)phenyl)-1H-pyrrolo[2,3-b]pyridin-3-yl)-3-(trifluoromethoxy)benzoic acid], the IC50 (in general, the point on the concentration scale where inhibition reaches its midpoint) fell in the range of 0.0001 to 1 µM.

Take `Cc1noc(C)c1-c1cnc2c(c1)c(-c1ccc(C(=O)O)cc1OC(F)(F)F)cn2-c1ccsc1` [P-0315, 4-(5-(3,5-dimethylisoxazol-4-yl)-1-(thiophen-3-yl)-1H-pyrrolo[2,3-b]pyridin-3-yl)-3-(trifluoromethoxy)benzoic acid]: the 50% inhibitory concentration (IC50) was in the range of 0.0001 to 1 µM.
